Measured values taken from patent publication US20020192194A1, “Production and use of dopaminergic cells to treat dopaminergic deficiencies” (priority 2000, published 2002).

Legend:
hNT neurons [1] = assay: TH expression of hNT neurons treated with lithium chloride (TH immunoreactivity counts); assay type: cell-based, human; conditions: 1.0 mM, 5-day cultures
Procedure: A small-scale dose range study analyzed whether therapeutic (0.5-1.0 mM) and clinically toxic (2.0-6.0 mM) concentrations of LiCl enhanced TH expression in cells treated for 6 weeks with retinoic acid and then LiCl. The control and lithium-treated cultures (0.5, 1.0 and 3.0 mM) were scored for TH immunoreactivity, which was expressed as the number of TH-positive (TH+) cells/well. For TH immunohistochemistry the cells were rinsed in 0.1 M phosphate buffered saline (PBS), fixed in 4% paraformaldehyde, and then again rinsed in PBS. […] To determine the percentage of cells labeled by a particular antibody in representative experiments, the numbers of labeled and unlabeled cells were assessed in a blind-coded manner using a 20X objective and a photographic frame. […]
To investigate the effect of various doses of LiCl on tyrosine hydroxylase expression in 5 DIV hNT neurons, we determined the number of unlabeled and TH+ neurons in a blind coded manner using a 20X objective and a photographic frame (field=0.3 mm^2). […] The dose responsive tests were analyzed using a one-way analysis of variance (ANOVA) followed by post hoc comparisons using Bonferroni-Dunn analysis.

hNT neurons [2] = assay: Soma size and neurite outgrowth of TH+ hNT cells (image analysis); assay type: cell-based, human; conditions: 5 days in culture
Procedure: The same series of slides immunostained for TH were employed to measure the soma size (μm^2) and neurite outgrowth (μm) of appropriately 50 TH+ cells per representative culture experiment using a computerized image analysis program (Image-Pro Plus, Media Cybernetics, Inc., Silver Springs, Md.) at 20X objective. The results in the morphological assessment study are reported as mean ±SEM and were analyzed using Student's t-test.

| SMILES | numbers of TH+ hNT cells vs control (hNT neurons [1]) | neurite outgrowth vs control (hNT neurons [2]) | soma size vs control (hNT neurons [2]) |
| --- | --- | --- | --- |
| [Cl-].[Na+] [NaCl] | not significantly different | did not significantly differ from control values | not significantly different from control |
| [Cl-].[K+] [KCl] | not significantly different | did not significantly differ from control values | not significantly different from control |
